Laboratory results taken from paper PMC11062899, “De novo development of small cyclic peptides that are orally bioavailable” (Nature Chemical Biology, 2023).
“And” between values parts separate entries of the source, which are not always exact repeats. Identical values can stand only once. Blank lines part the entries; values can stand above or below the molecule they belong to.

Assays:
rat α-thrombin = molecular target: T1, rat α-thrombin (Rattus norvegicus, UniProt P18292); assay: Protease inhibition, Ki for rat α-thrombin (fluorogenic substrate Z-Gly-Gly-Arg-AMC); assay type: biochemical; details: replicates R1-R3
T1 construct: rat α-thrombin (Molecular Innovations) were used at final concentrations of 2 nM and 3 nM; purchased Molecular Innovations
Procedure, shortened: (§1)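 Ki values come from Cheng–Prusoff correction of IC50, itself fitted by four-parameter logistic regression of activity versus a no-peptide control. Assays used 2 nM human or 3 nM rat thrombin, 50 μM Z-Gly-Gly-Arg-AMC, 30 min kinetic fluorescence at 25 °C.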

human α-thrombin = human α-thrombin (Homo sapiens, UniProt P00734); assay: Protease inhibition, Ki for human α-thrombin (fluorogenic substrate Z-Gly-Gly-Arg-AMC); assay type: biochemical; details: replicates R1-R3
Procedure, shortened: as §1

[1] = Passive artificial membrane permeability (PAMPA); details: for PAMPA permeability: % permeability: 50 μM, 12–18 h, acceptor concentration relative to equilibrium; for Papp at 50 μM / Permeability% Average / Permeability% R1 / Permeability% R3: PAMPA; for Papp at 50 μM: pH 7.4; for Permeability% Average: average of R1-R3; for Permeability% R1: replicate R1; for Permeability% R1 / Permeability% R3: TIC of top well sample relative to sample at theoretical equilibrium; for Permeability% R3: replicate R3
[2] = Metabolic stability in rat liver microsomes (RLMs); details: rat, microsomes
[3] = Peptide stability in simulated intestinal fluid (SIF); assay type: in vitro ADME, porcine; details: simulated gi fluid; 8 h, 37 °C, pH 6.8; read-out: Proteolytic stability: SIF (8 h) % remaining
Procedure, shortened: (§2)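 Peptide from a 1 mM DMSO stock was added to fluid pre-warmed at 37 °C. SGF was pH 1.2 NaCl with porcine pepsin (0.32 g per 100 ml), and SIF was pH 6.8 potassium phosphate with porcine pancreatin (1 g per 100 ml). Supernatant peptide was quantified by LC–MS, with residual expressed as T1/T0.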

porcine pancreatin = assay: as above; assay type: in vitro ADME; details: after 8 h vs 0 h (TIC); for SIF stability, Residual peptide Average: average of R1-R3; for SIF stability, Residual peptide: single replicates R1-R3
Procedure, shortened: as §2

porcine pepsin = molecular target: T2, porcine pepsin (Sus scrofa, UniProt P00791); assay: Peptide stability in simulated gastric fluid (SGF); assay type: in vitro ADME; details: for SGF stability, Residual peptide Average / SGF stability, Residual peptide: after 8 h vs 0 h (TIC); for SGF stability, Residual peptide Average: average of R1-R3; for SGF stability, Residual peptide: single replicates R1-R3; for remaining at 8 h: simulated gi fluid, 37 °C, pH 1.2, read-out: Proteolytic stability: SGF (8 h) % remaining
T2 construct: 0.32 g of porcine pepsin (Sigma-Aldrich, P7125) was dissolved under gentle agitation; purchased Sigma-Aldrich P7125
T2 sequence (P00791 60-385): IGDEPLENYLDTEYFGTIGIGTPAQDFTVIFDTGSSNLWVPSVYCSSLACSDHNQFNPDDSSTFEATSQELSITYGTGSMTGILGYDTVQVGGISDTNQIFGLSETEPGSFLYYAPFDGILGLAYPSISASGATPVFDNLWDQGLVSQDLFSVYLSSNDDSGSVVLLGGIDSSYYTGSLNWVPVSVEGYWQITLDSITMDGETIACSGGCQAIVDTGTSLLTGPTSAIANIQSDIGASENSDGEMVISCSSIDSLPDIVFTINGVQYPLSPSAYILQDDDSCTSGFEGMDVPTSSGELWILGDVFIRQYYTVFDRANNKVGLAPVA
Procedure, shortened: as §2

[4] = peptide 1.33E+02 uM, slope of proteolytic substrate cleavage over time
[5] = CL (ul/min/mg protein) R1, RLM CL, replicate R1
[6] = CL (ul/min/mg protein) R2, RLM CL, replicate R2
[7] = CL (ul/min/mg protein) R3, RLM CL, replicate R3
[8] = Half Life (min) R1, RLM metabolic stability, replicate R1, 0-60 min
[9] = Half Life (min) R2, RLM metabolic stability, replicate R2, 0-60 min
[10] = Half Life (min) R3, RLM metabolic stability, replicate R3, 0-60 min
[11] = Metabolic stability: Half life T1/2 (min), RLMs, mean and SD, three measurements
[12] = Metabolic stability: RLM CL (ul/min/mg), RLMs, mean and SD, three measurements

Rat alpha thrombin inhibition, slope normalized to DMSO (rat α-thrombin; [4]): 2.7 and 0.9 and 1.3
Rat alpha thrombin inhibition, slope normalized to DMSO (rat α-thrombin; peptide 1.67E+01 uM): 3.2 and 2.7 and 2.4
Rat alpha thrombin inhibition, slope normalized to DMSO (rat α-thrombin; peptide 2.08E+00 uM): 15.0 and 14.2 (2×)
Rat alpha thrombin inhibition, slope normalized to DMSO (rat α-thrombin; peptide 3.33E+01 uM): 3.0 and 2.9 and 1.6
Rat alpha thrombin inhibition, slope normalized to DMSO (rat α-thrombin; peptide 4.17E+00 uM): 8.4 and 7.9 and 15.6
Rat alpha thrombin inhibition, slope normalized to DMSO (rat α-thrombin; peptide 6.67E+01 uM): 2.7 and 2.1 and 0.8
Rat alpha thrombin inhibition, slope normalized to DMSO (rat α-thrombin; peptide 8.33E+00 uM): 4.8 and 3.7 and 3.3
Human alpha thrombin inhibition, slope normalized to DMSO (human α-thrombin; peptide 1.02E-03 uM): 103.5 and 98.1 and 102.6
Human alpha thrombin inhibition, slope normalized to DMSO (human α-thrombin; peptide 1.04E+00 uM): 51.0 and 46.3 and 53.8
Human alpha thrombin inhibition, slope normalized to DMSO (human α-thrombin; peptide 1.27E-04 uM): 101.6 (2×) and 101.3
Human alpha thrombin inhibition, slope normalized to DMSO (human α-thrombin; peptide 1.30E-01 uM): 84.8 and 85.3 and 87.8
Human alpha thrombin inhibition, slope normalized to DMSO (human α-thrombin; [4]): 2.9 and 4.3 and 7.1
Human alpha thrombin inhibition, slope normalized to DMSO (human α-thrombin; peptide 1.63E-02 uM): 94.6 and 91.7 and 97.3
Human alpha thrombin inhibition, slope normalized to DMSO (human α-thrombin; peptide 1.67E+01 uM): 6.9 and 8.0 and 8.2
Human alpha thrombin inhibition, slope normalized to DMSO (human α-thrombin; peptide 2.03E-03 uM): 83.6 and 95.2 and 99.1
Human alpha thrombin inhibition, slope normalized to DMSO (human α-thrombin; peptide 2.08E+00 uM): 39.4 and 34.7 and 41.2
Human alpha thrombin inhibition, slope normalized to DMSO (human α-thrombin; peptide 2.54E-04 uM): 100.6 and 99.2 and 101.0
Human alpha thrombin inhibition, slope normalized to DMSO (human α-thrombin; peptide 2.60E-01 uM): 69.7 and 83.0 and 22.1
Human alpha thrombin inhibition, slope normalized to DMSO (human α-thrombin; peptide 3.18E-05 uM): 102.2 and 99.2 and 102.0
Human alpha thrombin inhibition, slope normalized to DMSO (human α-thrombin; peptide 3.26E-02 uM): 94.2 and 94.0 and 90.4
Human alpha thrombin inhibition, slope normalized to DMSO (human α-thrombin; peptide 3.33E+01 uM): 5.8 (2×) and 6.2
Human alpha thrombin inhibition, slope normalized to DMSO (human α-thrombin; peptide 4.07E-03 uM): 90.8 and 94.4 and 95.3
Human alpha thrombin inhibition, slope normalized to DMSO (human α-thrombin; peptide 4.17E+00 uM): 22.8 and 22.7 and 20.6
Human alpha thrombin inhibition, slope normalized to DMSO (human α-thrombin; peptide 5.09E-04 uM): 101.7 and 100.4 and 99.5
Human alpha thrombin inhibition, slope normalized to DMSO (human α-thrombin; peptide 5.21E-01 uM): 67.4 and 67.9 and 63.6
Human alpha thrombin inhibition, slope normalized to DMSO (human α-thrombin; peptide 6.36E-05 uM): 101.4 and 100.0 and 102.5
Human alpha thrombin inhibition, slope normalized to DMSO (human α-thrombin; peptide 6.51E-02 uM): 98.0 and 95.1 and 90.8
Human alpha thrombin inhibition, slope normalized to DMSO (human α-thrombin; peptide 6.67E+01 uM): 5.7 and 4.5 and 9.4
Human alpha thrombin inhibition, slope normalized to DMSO (human α-thrombin; peptide 8.14E-03 uM): 81.7 and 101.4 and 94.1
Human alpha thrombin inhibition, slope normalized to DMSO (human α-thrombin; peptide 8.33E+00 uM): 13.3 and 14.1 and 15.9
PAMPA permeability: % permeability [1]: 17 ± 5%
Papp at 50 μM [1]: 1.2 ×10⁻⁶ cm/s
Permeability% Average [1]: 17.0%
Permeability% R1 [1]: 13.02%
Permeability% R3 [1]: 21.96%
microsomal CLint [2, 5]: 102 µL/min/mg
microsomal CLint [2, 6]: 60.2 µL/min/mg
microsomal CLint [2, 7]: 85 µL/min/mg
half-life [2, 8]: 13.6 min
half-life [2, 9]: 23 min
half-life [2, 10]: 16.3 min
half-life [2, 11]: 17.6 ± 4 min
microsomal CLint [2, 12]: 82 ± 17 µL/min/mg
remaining at 8 h [3]: 73 ± 14%
SIF stability, Residual peptide Average (porcine pancreatin): 72.44
SIF stability, Residual peptide (porcine pancreatin): 71.05 and 59.57 and 86.70
SGF stability, Residual peptide Average (porcine pepsin): 96.77
SGF stability, Residual peptide (porcine pepsin): 95.02 and 96.82 and 98.46
remaining at 8 h (porcine pepsin): 97 ± 2%
Structure (SMILES): O=C1CCSCc2ccc(cc2)CSCCNC(=O)[C@H](CNC(=O)c2ccc(Cl)s2)NC(=O)[C@H](Cc2ccccn2)N1 [compound 21]

Rat alpha thrombin inhibition, slope normalized to DMSO (rat α-thrombin; [4]): 2.8 and 3.3 and 1.9
Rat alpha thrombin inhibition, slope normalized to DMSO (rat α-thrombin; peptide 1.67E+01 uM): 7.6 and 6.1 and 7.2
Rat alpha thrombin inhibition, slope normalized to DMSO (rat α-thrombin; peptide 2.08E+00 uM): 33.9 and 32.6 and 33.7
Rat alpha thrombin inhibition, slope normalized to DMSO (rat α-thrombin; peptide 3.33E+01 uM): 4.8 and 4.2 and 4.5
Rat alpha thrombin inhibition, slope normalized to DMSO (rat α-thrombin; peptide 4.17E+00 uM): 21.3 and 20.5 and 20.2
Rat alpha thrombin inhibition, slope normalized to DMSO (rat α-thrombin; peptide 6.67E+01 uM): 3.3 and 2.6 and 2.7
Rat alpha thrombin inhibition, slope normalized to DMSO (rat α-thrombin; peptide 8.33E+00 uM): 13.5 and 12.2 and 12.7
Human alpha thrombin inhibition, slope normalized to DMSO (human α-thrombin; peptide 1.02E-03 uM): 102.8 and 97.7 and 93.9
Human alpha thrombin inhibition, slope normalized to DMSO (human α-thrombin; peptide 1.04E+00 uM): 77.5 and 70.0 and 74.3
Human alpha thrombin inhibition, slope normalized to DMSO (human α-thrombin; peptide 1.27E-04 uM): 100.4 and 110.4 and 99.0
Human alpha thrombin inhibition, slope normalized to DMSO (human α-thrombin; peptide 1.30E-01 uM): 97.9 and 99.8 and 91.2
Human alpha thrombin inhibition, slope normalized to DMSO (human α-thrombin; [4]): 5.1 and 4.3 and 6.3
Human alpha thrombin inhibition, slope normalized to DMSO (human α-thrombin; peptide 1.63E-02 uM): 96.1 and 101.1 and 95.8
Human alpha thrombin inhibition, slope normalized to DMSO (human α-thrombin; peptide 1.67E+01 uM): 20.9 and 21.1 and 17.2
Human alpha thrombin inhibition, slope normalized to DMSO (human α-thrombin; peptide 2.03E-03 uM): 100.4 and 98.0 and 100.5
Human alpha thrombin inhibition, slope normalized to DMSO (human α-thrombin; peptide 2.08E+00 uM): 66.4 and 63.2 and 62.8
Human alpha thrombin inhibition, slope normalized to DMSO (human α-thrombin; peptide 2.54E-04 uM): 104.5 and 97.0 and 96.4
Human alpha thrombin inhibition, slope normalized to DMSO (human α-thrombin; peptide 2.60E-01 uM): 95.1 and 92.0 and 90.3
Human alpha thrombin inhibition, slope normalized to DMSO (human α-thrombin; peptide 3.18E-05 uM): 99.7 and 98.9 and 101.2
Human alpha thrombin inhibition, slope normalized to DMSO (human α-thrombin; peptide 3.26E-02 uM): 99.6 and 98.9 and 96.4
Human alpha thrombin inhibition, slope normalized to DMSO (human α-thrombin; peptide 3.33E+01 uM): 10.4 and 11.3 and 12.9
Human alpha thrombin inhibition, slope normalized to DMSO (human α-thrombin; peptide 4.07E-03 uM): 102.1 and 98.1 and 100.5
Human alpha thrombin inhibition, slope normalized to DMSO (human α-thrombin; peptide 4.17E+00 uM): 49.4 and 48.2 and 42.7
Human alpha thrombin inhibition, slope normalized to DMSO (human α-thrombin; peptide 5.09E-04 uM): 105.6 and 97.1 and 101.8
Human alpha thrombin inhibition, slope normalized to DMSO (human α-thrombin; peptide 5.21E-01 uM): 84.4 and 88.3 and 83.4
Human alpha thrombin inhibition, slope normalized to DMSO (human α-thrombin; peptide 6.36E-05 uM): 104.9 and 95.6
Human alpha thrombin inhibition, slope normalized to DMSO (human α-thrombin; peptide 6.51E-02 uM): 99.3 and 101.7 and 95.4
Human alpha thrombin inhibition, slope normalized to DMSO (human α-thrombin; peptide 6.67E+01 uM): 5.8 and 5.7 and 8.8
Human alpha thrombin inhibition, slope normalized to DMSO (human α-thrombin; peptide 8.14E-03 uM): 101.9 and 98.8 and 103.6
Human alpha thrombin inhibition, slope normalized to DMSO (human α-thrombin; peptide 8.33E+00 uM): 31.4 and 24.4 and 30.5
PAMPA permeability: % permeability [1]: 16 ± 7%
Papp at 50 μM [1]: 1.05 ×10⁻⁶ cm/s
Permeability% Average [1]: 15.5%
Permeability% R1 [1]: 9.36%
Permeability% R3 [1]: 23.67%
microsomal CLint [2, 5]: 266 µL/min/mg
microsomal CLint [2, 6]: 255 µL/min/mg
microsomal CLint [2, 7]: 248 µL/min/mg
half-life [2, 8]: 5.21 min
half-life [2, 9]: 5.44 min
half-life [2, 10]: 5.58 min
half-life [2, 11]: 5.4 ± 0.2 min
microsomal CLint [2, 12]: 260 ± 10 µL/min/mg
remaining at 8 h [3]: 96 ± 9%
SIF stability, Residual peptide Average (porcine pancreatin): 96.16
SIF stability, Residual peptide (porcine pancreatin): 94.79 and 87.84 and 105.86
SGF stability, Residual peptide Average (porcine pepsin): 96.43
SGF stability, Residual peptide (porcine pepsin): 98.71 and 95.02 and 95.57
remaining at 8 h (porcine pepsin): 96 ± 2%
Structure (SMILES): O=C1CCSC/C=C/CSCCNC(=O)[C@H](CNC(=O)c2ccc(Cl)s2)NC(=O)[C@H](Cc2ccccn2)N1 [compound 22]
